Source: ChEMBL document CHEMBL1201862, “PubChem BioAssay data set” (2004)
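Assay format: 96-well plates, 48-hour exposure. At the GI50, growth is halved.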 Active and inactive are the calls of the source. Cut-off read from the data, not from the text of the source: active = GI50 up to about 1.1 µM and inactive = higher.

Experiments:
Test in all cases: NCI-60 cell line screen, 48 h
KM12 = tested on: KM12
HCT-116 = tested on: HCT-116
SW-620 = tested on: SW-620
MOLT-4 = tested on: MOLT-4
UO-31 = tested on: UO-31
T47D = tested on: T47D
786-0 = tested on: 786-0
DMS-273 = tested on: DMS-273
OVCAR-5 = tested on: OVCAR-5
LOX IMVI = tested on: LOX IMVI
SN12C = tested on: SN12C
A498 = tested on: A498
HOP-62 = tested on: HOP-62
SR = tested on: SR
COLO 205 = tested on: COLO 205
IGROV-1 = tested on: IGROV-1
U-251 = tested on: U-251
SNB-19 = tested on: SNB-19
SF-268 = tested on: SF-268
CAKI-1 = tested on: CAKI-1

| SMILES | GI50 (KM12) | GI50 (HCT-116) | GI50 (SW-620) | GI50 (MOLT-4) | GI50 (UO-31) | GI50 (T47D) | GI50 (786-0) | GI50 (DMS-273) | GI50 (OVCAR-5) | GI50 (LOX IMVI) | GI50 (SN12C) | GI50 (A498) | GI50 (HOP-62) | GI50 (SR) | GI50 (COLO 205) | GI50 (IGROV-1) | GI50 (U-251) | GI50 (SNB-19) | GI50 (SF-268) | GI50 (CAKI-1) |
| --- | --- | --- | --- | --- | --- | --- | --- | --- | --- | --- | --- | --- | --- | --- | --- | --- | --- | --- | --- | --- |
| O=c1[nH]c(=O)n([C@@H]2O[C@H](CO)[C@@H](O)[C@H]2O)cc1F [5-FLUOROURIDINE] | 0.0671 µM (active) | 0.0167 µM (active) | 0.0222 µM (active) | 0.0861 µM (active) | 0.0792 µM (active) | 0.114 µM (active) | 0.0408 µM (active) | 0.312 µM (active) | 0.718 µM (active) | 0.0556 µM (active) | 0.0603 µM (active) | 0.308 µM (active) | 0.171 µM (active) | 0.0473 µM (active) | 0.0787 µM (active) | 0.0803 µM (active) | 0.0462 µM (active) | 0.0579 µM (active) | 0.0716 µM (active) | 0.0483 µM (active) |
| COc1ccc(-c2nc(N)nc(-c3cc(C)ccc3O)c2Cl)cc1 | 65.5 µM (inactive) | 39.5 µM (inactive) | > 100 µM (inactive) | > 100 µM (inactive) | 26.7 µM (inactive) |  | 45.4 µM (inactive) | 43.7 µM (inactive) | > 100 µM (inactive) | 58.9 µM (inactive) | 76.7 µM (inactive) | 43.7 µM (inactive) | 41.7 µM (inactive) | > 100 µM (inactive) | > 100 µM (inactive) | > 100 µM (inactive) | 39.6 µM (inactive) | 32.9 µM (inactive) | 26.4 µM (inactive) | 91.4 µM (inactive) |
| CCOC(=O)CC1(C(=O)OCC)c2[nH]c3ccccc3c2CCN1Cc1ccccc1 (configuration not stated) | 17.7 µM (inactive) | 17 µM (inactive) | 31.7 µM (inactive) | 13.5 µM (inactive) | 18.4 µM (inactive) |  | 16.9 µM (inactive) | 17.3 µM (inactive) | 20.5 µM (inactive) | 18.5 µM (inactive) | 14.2 µM (inactive) | 19.3 µM (inactive) | 18.1 µM (inactive) | 22 µM (inactive) | 16.7 µM (inactive) | 18.3 µM (inactive) | 15 µM (inactive) | 38.4 µM (inactive) | 20.2 µM (inactive) | 31 µM (inactive) |
| O=S1(=O)OCCOS(=O)(=O)C1(Cl)Cl | > 100 µM (inactive) | > 100 µM (inactive) | > 100 µM (inactive) | 42.2 µM (inactive) | 99.8 µM (inactive) |  | 61.9 µM (inactive) | 53.1 µM (inactive) |  | 61.4 µM (inactive) | > 100 µM (inactive) | > 100 µM (inactive) | 64.9 µM (inactive) | 35.6 µM (inactive) | > 100 µM (inactive) | > 100 µM (inactive) |  | 91.4 µM (inactive) | 43.5 µM (inactive) | 47 µM (inactive) |
| CCCCCCC(/C=N/O)C(C)(O)CCC (configuration not stated) | > 100 µM (inactive) | 91.4 µM (inactive) | > 100 µM (inactive) | 61.7 µM (inactive) | > 100 µM (inactive) |  | > 100 µM (inactive) | > 100 µM (inactive) | > 100 µM (inactive) | > 100 µM (inactive) | > 100 µM (inactive) | > 100 µM (inactive) | > 100 µM (inactive) |  | > 100 µM (inactive) | > 100 µM (inactive) | > 100 µM (inactive) | > 100 µM (inactive) | > 100 µM (inactive) | > 100 µM (inactive) |
| CN(C)[C@@H]1C(O)=C(C(=O)NCNCCCC(=O)O)C(=O)[C@@]2(O)C(O)=C3C(=O)c4c(O)cccc4[C@@](C)(O)[C@H]3C[C@@H]12 | > 100 µM (inactive) | > 100 µM (inactive) | > 100 µM (inactive) | > 100 µM (inactive) | > 100 µM (inactive) |  | > 100 µM (inactive) | > 100 µM (inactive) | > 100 µM (inactive) | > 100 µM (inactive) | > 100 µM (inactive) | > 100 µM (inactive) | > 100 µM (inactive) | > 100 µM (inactive) | > 100 µM (inactive) | > 100 µM (inactive) | > 100 µM (inactive) | > 100 µM (inactive) | > 100 µM (inactive) | > 100 µM (inactive) |
| O=C1OC(c2cccc(C(F)(F)F)c2)c2ccc3ccccc3c21 (configuration not stated) | > 10 µM (inactive) | > 10 µM (inactive) | > 10 µM (inactive) | 6.31 µM (inactive) | 9.68 µM (inactive) |  | > 10 µM (inactive) | > 10 µM (inactive) | > 10 µM (inactive) | 8.45 µM (inactive) | > 10 µM (inactive) | > 10 µM (inactive) | > 10 µM (inactive) | > 10 µM (inactive) | > 10 µM (inactive) | > 10 µM (inactive) | 7.59 µM (inactive) | > 10 µM (inactive) | > 10 µM (inactive) | > 10 µM (inactive) |
| CCC(C)(O)c1cn(-c2cccc(S(=O)(=O)O)c2)nn1 (configuration not stated) | > 100 µM (inactive) | > 100 µM (inactive) | > 100 µM (inactive) | > 100 µM (inactive) | > 100 µM (inactive) |  | > 100 µM (inactive) | > 100 µM (inactive) | > 100 µM (inactive) | > 100 µM (inactive) | > 100 µM (inactive) | > 100 µM (inactive) | > 100 µM (inactive) | > 100 µM (inactive) | > 100 µM (inactive) | > 100 µM (inactive) | > 100 µM (inactive) | > 100 µM (inactive) | > 100 µM (inactive) | > 100 µM (inactive) |
| COC(=O)C(C(=O)C(=O)Nc1nnc(S)[nH]1)c1csc(N)n1 (configuration not stated) | > 100 µM (inactive) | > 100 µM (inactive) | > 100 µM (inactive) | > 100 µM (inactive) | > 100 µM (inactive) |  | > 100 µM (inactive) | > 100 µM (inactive) | > 100 µM (inactive) | > 100 µM (inactive) | > 100 µM (inactive) | > 100 µM (inactive) | > 100 µM (inactive) | > 100 µM (inactive) | > 100 µM (inactive) | > 100 µM (inactive) | > 100 µM (inactive) | > 100 µM (inactive) | > 100 µM (inactive) | > 100 µM (inactive) |
| COc1ccc(NC(=O)CCc2cc(C(C)(C)C)[nH]n2)cc1 | > 100 µM (inactive) | > 100 µM (inactive) | > 100 µM (inactive) | > 100 µM (inactive) | > 100 µM (inactive) |  | > 100 µM (inactive) | > 100 µM (inactive) | > 100 µM (inactive) | > 100 µM (inactive) | > 100 µM (inactive) | > 100 µM (inactive) | > 100 µM (inactive) | > 100 µM (inactive) | > 100 µM (inactive) | > 100 µM (inactive) | > 100 µM (inactive) | > 100 µM (inactive) | > 100 µM (inactive) | > 100 µM (inactive) |
| OC12c3ccccc3C1CCCCCC21OCCCO1 (configuration not stated) | > 100 µM (inactive) | > 100 µM (inactive) | > 100 µM (inactive) | > 100 µM (inactive) | > 100 µM (inactive) |  | > 100 µM (inactive) | > 100 µM (inactive) | > 100 µM (inactive) | > 100 µM (inactive) | > 100 µM (inactive) | > 100 µM (inactive) | > 100 µM (inactive) |  | > 100 µM (inactive) | > 100 µM (inactive) | > 100 µM (inactive) | > 100 µM (inactive) | > 100 µM (inactive) | > 100 µM (inactive) |
| CCOc1ccc(NC(=O)CC2SC(Nc3ccc(C)cc3C)=NC2=O)cc1 (configuration not stated) |  | > 100 µM (inactive) | > 100 µM (inactive) | 21.4 µM (inactive) | > 100 µM (inactive) |  | > 100 µM (inactive) | > 100 µM (inactive) | > 100 µM (inactive) | > 100 µM (inactive) | > 100 µM (inactive) | > 100 µM (inactive) |  | 29.5 µM (inactive) |  | > 100 µM (inactive) | 36 µM (inactive) | 54.3 µM (inactive) | 43.6 µM (inactive) | > 100 µM (inactive) |
| CCO/C=C1\N=C(c2ccccc2Br)OC1=O | > 10 µM (inactive) |  | > 100 µM (inactive) | > 100 µM (inactive) | > 100 µM (inactive) |  | > 100 µM (inactive) | > 100 µM (inactive) | > 100 µM (inactive) | > 100 µM (inactive) | > 100 µM (inactive) | > 100 µM (inactive) | > 100 µM (inactive) |  | > 100 µM (inactive) |  |  | > 100 µM (inactive) | > 100 µM (inactive) | > 100 µM (inactive) |
| O=C(Nc1cc(Cl)c(Cl)cc1Cl)C(=O)C1C=CCS1(=O)=O (configuration not stated) | > 100 µM (inactive) | > 100 µM (inactive) | > 100 µM (inactive) | > 100 µM (inactive) | > 100 µM (inactive) |  | > 100 µM (inactive) | > 100 µM (inactive) | > 100 µM (inactive) | > 100 µM (inactive) | 93.5 µM (inactive) | > 100 µM (inactive) | > 100 µM (inactive) | > 100 µM (inactive) | > 100 µM (inactive) | > 100 µM (inactive) | > 100 µM (inactive) | > 100 µM (inactive) | > 100 µM (inactive) | > 100 µM (inactive) |
| Cn1c2c([N+](=O)[O-])cccc2c(=O)c2c(O)cc3c(c21)C=CC(C)(C)O3 | 23.2 µM (inactive) |  | 69.3 µM (inactive) | 42.9 µM (inactive) | 40.6 µM (inactive) |  | 32 µM (inactive) | 33.2 µM (inactive) | 35.7 µM (inactive) | 25.2 µM (inactive) | 52 µM (inactive) | 5.51 µM (inactive) |  |  | 44.8 µM (inactive) | 34.4 µM (inactive) | > 100 µM (inactive) | 41.7 µM (inactive) | 38.9 µM (inactive) | 18.7 µM (inactive) |
